Results as given in PubChem BioAssay AID248 (DTP/NCI, 2004).
Several values for one entry are separate records, joined by “and”; a condition that tells them apart may be missing. Equal values may be shown once. Inconclusive results and toxic doses are left out. Cut-off read from the data, not from the text of the source: active = T/C of 150% or more; inactive = T/C below 125%.

Tested on: L1210 leukemia ip in BDF1 mice, survival T/C
Test: NCI In Vivo Anticancer Drug Screen. Data for tumor model L1210 Leukemia (intraperitoneal) in B6D2F1 (BDF1) mice
Settings: endpoint: mean survival time, higher = longer survival
Procedure, shortened: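 Transplantable tumor model; survival measured in treated vs vehicle control mice. Value = treated/control.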

[1] = dose: 50.0 mg/kg/injection, schedule: Q01DX009 (ip), vehicle: saline
[2] = dose: 100.0 mg/kg/injection, schedule: Q01DX001 (ip), vehicle: saline
[3] = dose: 100.0 mg/kg/injection, schedule: Q01DX009 (ip), vehicle: saline
[4] = dose: 200.0 mg/kg/injection, schedule: Q01DX001 (ip), vehicle: saline
[5] = dose: 200.0 mg/kg/injection, schedule: Q01DX009 (ip), vehicle: saline
[6] = dose: 100.0 mg/kg/injection, schedule: Q04DX003 (ip), vehicle: Klucel (hydroxypropylcellulose) (HPC)
[7] = dose: 200.0 mg/kg/injection, schedule: Q04DX003 (ip), vehicle: Klucel (hydroxypropylcellulose) (HPC)
[8] = dose: 400.0 mg/kg/injection, schedule: Q04DX003 (ip), vehicle: Klucel (hydroxypropylcellulose) (HPC)
[9] = dose: 100.0 mg/kg/injection, schedule: Q01DX009 (ip), vehicle: Klucel (hydroxypropylcellulose) (HPC)
[10] = dose: 100.0 mg/kg/injection, schedule: Q04DX003 (ip), vehicle: saline with Tween-80
[11] = dose: 200.0 mg/kg/injection, schedule: Q04DX003 (ip), vehicle: saline with Tween-80
[12] = dose: 50.0 mg/kg/injection, schedule: Q01DX009 (ip), vehicle: saline with Tween-80
[13] = dose: 100.0 mg/kg/injection, schedule: Q01DX009 (ip), vehicle: saline with Tween-80
[14] = dose: 200.0 mg/kg/injection, schedule: Q01DX009 (ip), vehicle: saline with Tween-80
[15] = dose: 200.0 mg/kg/injection, schedule: Q01DX009 (ip), vehicle: Klucel (hydroxypropylcellulose) (HPC)
[16] = dose: 400.0 mg/kg/injection, schedule: Q01DX009 (ip), vehicle: Klucel (hydroxypropylcellulose) (HPC)
[17] = dose: 50.0 mg/kg/injection, schedule: Q04DX003 (ip), vehicle: Klucel (hydroxypropylcellulose) (HPC)

Measured: T/C

CCOC(=O)c1ccc2c(ccc3ccccc32)n1
inactive: dose: 25.0 mg/kg/injection, schedule: Q01DX001 (ip), vehicle: carboxymethylcellulose (CMC) 97 % of control | dose: 25.0 mg/kg/injection, schedule: Q01DX009 (ip), vehicle: carboxymethylcellulose (CMC) 98 % of control and 102 % of control | dose: 25.0 mg/kg/injection, schedule: Q04DX002 (ip), vehicle: carboxymethylcellulose (CMC) 93 % of control and 104 % of control | dose: 25.0 mg/kg/injection, schedule: Q04DX003 (ip), vehicle: carboxymethylcellulose (CMC) 108 % of control | dose: 50.0 mg/kg/injection, schedule: Q01DX001 (ip), vehicle: carboxymethylcellulose (CMC) 102 % of control | dose: 50.0 mg/kg/injection, schedule: Q01DX009 (ip), vehicle: carboxymethylcellulose (CMC) 94 % of control and 98 % of control | dose: 50.0 mg/kg/injection, schedule: Q04DX002 (ip), vehicle: carboxymethylcellulose (CMC) 97 % of control | dose: 50.0 mg/kg/injection, schedule: Q04DX003 (ip), vehicle: carboxymethylcellulose (CMC) 102 % of control | dose: 100.0 mg/kg/injection, schedule: Q01DX001 (ip), vehicle: carboxymethylcellulose (CMC) 94 % of control | dose: 100.0 mg/kg/injection, schedule: Q01DX009 (ip), vehicle: carboxymethylcellulose (CMC) 100 % of control | dose: 100.0 mg/kg/injection, schedule: Q04DX002 (ip), vehicle: carboxymethylcellulose (CMC) 93 % of control and 101 % of control | dose: 100.0 mg/kg/injection, schedule: Q04DX003 (ip), vehicle: carboxymethylcellulose (CMC) 105 % of control

O=[N+]([O-])c1ccc(NCCNC(c2ccccc2)(c2ccccc2)c2ccccc2)c([N+](=O)[O-])c1
inactive: [1] 96 % of control | [2] 87 % of control | [3] 91 % of control | [4] 90 % of control | [5] 93 % of control

CC(=O)CCc1c(C)nc(Nc2nc3cc(C)c(C)cc3[nH]2)nc1C
inactive: [6] 93 % of control | [7] 96 % of control | [8] 93 % of control

Cc1ccc([N+](=O)[O-])cc1NC(=O)Nc1ccccc1C(N)=O
inactive: dose: 100.0 mg/kg/injection, schedule: Q04DX002 (ip), vehicle: Klucel (hydroxypropylcellulose) (HPC) 114 % of control | dose: 200.0 mg/kg/injection, schedule: Q04DX002 (ip), vehicle: Klucel (hydroxypropylcellulose) (HPC) 103 % of control | dose: 400.0 mg/kg/injection, schedule: Q04DX002 (ip), vehicle: Klucel (hydroxypropylcellulose) (HPC) 94 % of control

O=C(CCl)NC(O)C(Cl)(Cl)Cl (stereo unspecified)
inactive: dose: 1.8 mg/kg/injection, schedule: Q01DX009 (ip), vehicle: saline with Tween-80 100 % of control | dose: 3.7 mg/kg/injection, schedule: Q01DX009 (ip), vehicle: saline with Tween-80 98 % of control | dose: 7.5 mg/kg/injection, schedule: Q01DX009 (ip), vehicle: saline with Tween-80 102 % of control | dose: 75.0 mg/kg/injection, schedule: Q04DX003 (ip), vehicle: saline 101 % of control | dose: 150.0 mg/kg/injection, schedule: Q04DX003 (ip), vehicle: saline 101 % of control | dose: 300.0 mg/kg/injection, schedule: Q04DX003 (ip), vehicle: saline 87 % of control

COc1ccccc1OCCOCCN(C)C1CC2CCC1(C)C2(C)C (stereo unspecified)
inactive: [6] 93 % of control

CCOc1ccc2nc(Cl)sc2c1
inactive: dose: 50.0 mg/kg/injection, schedule: Q01DX009 (ip), vehicle: Klucel (hydroxypropylcellulose) (HPC) 92 % of control | dose: 75.0 mg/kg/injection, schedule: Q04DX003 (ip), vehicle: Klucel (hydroxypropylcellulose) (HPC) 93 % of control | [9] 94 % of control | dose: 150.0 mg/kg/injection, schedule: Q04DX003 (ip), vehicle: Klucel (hydroxypropylcellulose) (HPC) 96 % of control

CN(C)CCCNC(=S)S
inactive: dose: 6.0 mg/kg/injection, schedule: Q01DX009 (ip), vehicle: saline 106 % of control | dose: 12.0 mg/kg/injection, schedule: Q01DX009 (ip), vehicle: saline 100 % of control | dose: 25.0 mg/kg/injection, schedule: Q01DX009 (ip), vehicle: saline 111 % of control

COC(=O)C(CCC(=O)CCl)N1C(=O)c2ccccc2C1=O (stereo unspecified)
inactive: [10] 89 % of control | [11] 89 % of control

O=[N+]([O-])c1ccc(CN=NCc2ccc(Cl)cc2Cl)c(Cl)c1
inactive: [12] 90 % of control | [13] 100 % of control | [14] 100 % of control | dose: 400.0 mg/kg/injection, schedule: Q01DX009 (ip), vehicle: saline with Tween-80 95 % of control

CCOC(=O)C(NC(N)=O)C(=O)OCC
inactive: [9] 95 % of control | [6] 95 % of control | [15] 101 % of control | [7] 97 % of control | [16] 101 % of control | [8] 104 % of control

O=C1NC(Cc2ccccc2)C(=O)O1 (stereo unspecified)
inactive: dose: 100.0 mg/kg/injection, schedule: Q04DX003 (ip), vehicle: saline 100 % of control | dose: 200.0 mg/kg/injection, schedule: Q04DX003 (ip), vehicle: saline 91 % of control | dose: 400.0 mg/kg/injection, schedule: Q04DX003 (ip), vehicle: saline 93 % of control

Cc1ccc(N=Nc2c(N)ccc3ccccc23)cc1
inactive: dose: 100.0 mg/kg/injection, schedule: Q01DX001 (ip), vehicle: other 100 % of control | dose: 200.0 mg/kg/injection, schedule: Q01DX001 (ip), vehicle: other 100 % of control

CC(=O)Nc1ccc(NC(=O)C2C3C=CC(C3)C2C(=O)O)cc1 (stereo unspecified)
inactive: [12] 101 % of control | [13] 107 % of control | [14] 93 % of control

C=CC1(C)C=C2CCC3C(C)(C(=O)O)CCCC3(C)C2CC1 (stereo unspecified)
inactive: dose: 100.0 mg/kg/injection, schedule: Q04DX002 (ip), vehicle: saline with Tween-80 106 % of control | dose: 200.0 mg/kg/injection, schedule: Q04DX002 (ip), vehicle: saline with Tween-80 95 % of control

CC(=O)OCCOc1cccc(C)c1
inactive: dose: 100.0 mg/kg/injection, schedule: Q04DX002 (ip), vehicle: saline 114 % of control | dose: 200.0 mg/kg/injection, schedule: Q04DX002 (ip), vehicle: saline 96 % of control | dose: 400.0 mg/kg/injection, schedule: Q04DX002 (ip), vehicle: saline 107 % of control

Cc1ccc(NC(=O)c2ccc(C)c(NC(=O)C(F)(F)F)c2)c(C)c1
inactive: [17] 97 % of control | [6] 100 % of control | [7] 95 % of control

CN=C(N)NC
inactive: [1] 94 % of control | [3] 100 % of control | [10] 98 % of control | [5] 91 % of control | [11] 97 % of control

O=C1CCC(c2cccc([N+](=O)[O-])c2)=NN1
inactive: [9] 89 % of control | [15] 93 % of control | [16] 89 % of control

O=C(c1ccccc1)C1(c2ccccc2)SC1(C(=O)c1ccccc1)c1ccccc1 (stereo unspecified)
inactive: [10] 92 % of control | [11] 91 % of control | dose: 400.0 mg/kg/injection, schedule: Q04DX003 (ip), vehicle: saline with Tween-80 87 % of control

Clc1ccccc1C(c1ccccc1)(c1ccc2ccccc2c1)n1ccnc1 (stereo unspecified)
inactive: [6] 102 % of control | [7] 101 % of control | [8] 101 % of control

CC(C)(CO)COS(=O)(=O)c1ccc(Br)cc1
inactive: [12] 89 % of control

CCOC(=O)c1cc2c3n(c1=O)CCCC3C(c1ccc(Cl)c(Cl)c1)OC2=O (stereo unspecified)
inactive: [2] 97 % of control | [4] 104 % of control | dose: 400.0 mg/kg/injection, schedule: Q01DX001 (ip), vehicle: saline 92 % of control

CC(C)(NC(=O)c1ccccc1)C(=O)O
inactive: [17] 106 % of control | [6] 96 % of control | [7] 88 % of control

CCCCCCCCCCCCCCCCCCn1cnc2c(N)ncnc21
inactive: dose: 12.5 mg/kg/injection, schedule: Q01DX005 (ip), vehicle: other 105 % of control | dose: 25.0 mg/kg/injection, schedule: Q01DX005 (ip), vehicle: other 97 % of control | dose: 50.0 mg/kg/injection, schedule: Q01DX005 (ip), vehicle: other 102 % of control | dose: 100.0 mg/kg/injection, schedule: Q01DX005 (ip), vehicle: other 103 % of control | dose: 200.0 mg/kg/injection, schedule: Q01DX005 (ip), vehicle: other 108 % of control
